Experimental data from PMC4500996, “Ortho-methylated 3-hydroxypyridines hinder hen egg-white lysozyme fibrillogenesis” (Scientific Reports, 2015).

Each molecule was assayed against T1, hen egg-white lysozyme (HEWL) (Gallus gallus, UniProt P00698) (assay: intrinsic Trp fluorescence quenching titration ([…] nm), two-site fit in DynaFit). Conditions: pH 2.0, 37 °C, 2 mM sodium chloroacetate, 10 µM HEWL; stronger of two independent sites; cationic ligand.
T1 construct: gene LYZ
Type: binding

T1 sequence (P00698 19-147): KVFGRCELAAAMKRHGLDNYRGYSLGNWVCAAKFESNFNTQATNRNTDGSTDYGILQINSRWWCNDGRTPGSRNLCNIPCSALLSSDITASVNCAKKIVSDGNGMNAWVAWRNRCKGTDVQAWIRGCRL

Structure (SMILES)	Ka (M^-1).10^-3( ^a)
Cc1ncccc1O [2 m-3HP, 3-hydroxy-2-methylpyridine]	(9.3 ± 0.2)·10^3
Cc1ccc(O)c(C)n1 [2,6dm-3HP, 3-hydroxy-2,6-dimethylpyridine]	(8.9 ± 0.2)·10^3
Cc1ccc(O)cn1 [6 m-3HP, 3-hydroxy-6-methylpyridine]	(7.4 ± 0.1)·10^3
